Experimental findings from patent US6191118A (Taisho Pharmaceutical Co., Ltd., priority 1996, dated 2001) are described below.

Values after ≈ are worked out from the molar mass of the structure shown.

Common to all, as to format: cell-based
Assay [1] deals with S. aureus 209P-JC. Kind of assay: In vitro antibacterial activity (MIC), S. aureus 209P-JC. The following applies: Staphylococcus aureus, sensitive disc media, Japan Society of Chemotherapy method, read-out: MIC (Minimum Inhibitory Concentration). How it is done:
(§1) The in vitro antibacterial activity of the compound obtained in Example 4 as an example of the compound of the present invention against various experimental bacteria was measured using sensitive disc media (produced by Eiken Chemical Co.) according to the MIC measuring method specified by the Japan Society of Chemotherapy. Clarithromycin was used as a comparative drug.

Assay [2] concerns S. aureus Smith. Kind of assay: In vitro antibacterial activity (MIC), S. aureus Smith. The following applies: Staphylococcus aureus, sensitive disc media, Japan Society of Chemotherapy method, read-out: MIC (Minimum Inhibitory Concentration). The procedure: as §1
Assay [3] concerns S. aureus J-109. The assay can be described thus: In vitro antibacterial activity (MIC), S. aureus J-109. The following applies: Staphylococcus aureus, J109, sensitive disc media, Japan Society of Chemotherapy method, read-out: MIC (Minimum Inhibitory Concentration). How it is done: as §1
Assay [4] deals with S. aureus B1. Kind of assay: In vitro antibacterial activity (MIC), S. aureus B1. The following applies: Staphylococcus aureus, sensitive disc media, Japan Society of Chemotherapy method, read-out: MIC (Minimum Inhibitory Concentration). How it is done:
as §1

For assay [5], the system named is S. pneumoniae IID 553. Kind of assay: In vitro antibacterial activity (MIC), S. pneumoniae IID 553. The following applies: Streptococcus pneumoniae, IID553, sensitive disc media, Japan Society of Chemotherapy method, read-out: MIC (Minimum Inhibitory Concentration). How it is done: as §1
Assay [6] relates to S. pneumoniae BM 210. Kind of assay: In vitro antibacterial activity (MIC), S. pneumoniae BM 210. As to conditions: Streptococcus pneumoniae, BM210, sensitive disc media, Japan Society of Chemotherapy method, read-out: MIC (Minimum Inhibitory Concentration). The procedure:
as §1

Assay [7] relates to S. pneumoniae BM 205. Kind of assay: In vitro antibacterial activity (MIC), S. pneumoniae BM 205. The following applies: Streptococcus pneumoniae, BM205, sensitive disc media, Japan Society of Chemotherapy method, read-out: MIC (Minimum Inhibitory Concentration). How it is done:
as §1

The subject of assay [8] is erythromycin-sensitive bacteria. The assay can be described thus: Antibacterial activity against erythromycin-sensitive bacteria (in words). The procedure: as §1
Assay [9] deals with erythromycin-resistant bacteria. The assay can be described thus: Antibacterial activity against erythromycin-resistant bacteria (in words). The procedure:
as §1

As to `CC[C@H]1OC(=O)[C@H](C)[C@@H](OC(=O)Cc2ccccn2)[C@H](C)[C@@H](O[C@@H]2O[C@H](C)C[C@H](N(C)C)[C@H]2O)[C@](C)(OC)C[C@@H](C)C(=O)[C@H](C)[C@H]2N(CCN(C)Cc3cccnc3)C(=O)O[C@]12C` [Example 4, 11-{2-[N-methyl-N-(3-pyridylmethyl)amino]ethyl}amino-11-deoxy-3-O-(2-pyridyl)acetyl-5-O-desosaminyl-6-O-methylerythronolide A 11,12-cyclic carbamate], the MIC in assay [1] is 0.1 µg/mL (≈ 0.113 µM); in assay [2], 0.2 µg/mL (≈ 0.227 µM); in assay [3] it was above 100 µg/mL; in assay [4], 0.39 µg/mL (≈ 0.442 µM); in assay [5], 0.1 µg/mL (≈ 0.113 µM); in assay [6] it was 0.39 µg/mL (≈ 0.442 µM). In addition, the MIC in assay [7] is 0.39 µg/mL (≈ 0.442 µM). Further, the antibacterial activity entry in [8] and in assay [9] was “strong antibacterial activity” throughout.

In the case of `CC[C@H]1OC(=O)[C@H](C)[C@@H](O[C@H]2C[C@@](C)(OC)[C@@H](O)[C@H](C)O2)[C@H](C)[C@@H](O[C@@H]2O[C@H](C)C[C@H](N(C)C)[C@H]2O)[C@](C)(OC)C[C@@H](C)C(=O)[C@H](C)[C@@H](O)[C@]1(C)O` [Comparative drug, Clarithromycin, reference compound], the MIC in assay [3] was above 100 µg/mL; in assay [4] it was above 100 µg/mL; in [5], 0.1 µg/mL (≈ 0.134 µM); in [6], 1.56 µg/mL (≈ 2.09 µM); in assay [7] it was above 100 µg/mL.
